Earlier results on 4 compounds are cited in US20050165089A1, “Compounds, compositions and methods” (priority 2003, published 2005).

One may read the GI50 as the concentration at which growth is held to half of that of the control.

For this data set, the system named is A549 cells.

Regarding `NC(=O)NO` [hydroxyurea], the GI50 was 500000 nM.
Turning to `CC(=O)O[C@H]1C(=O)[C@@]2(C)[C@H]([C@H](OC(=O)c3ccccc3)[C@]3(O)C[C@H](OC(=O)[C@H](O)[C@@H](NC(=O)c4ccccc4)c4ccccc4)C(C)=C1C3(C)C)[C@]1(OC(C)=O)CO[C@@H]1C[C@@H]2O` [paclitaxel], the 50% growth inhibitory concentration (GI50) was 4 nM.
With `O=c1[nH]cc(F)c(=O)[nH]1` [5-fluorouracil], the GI50 is 1000 nM.
As for `COc1cccc2c1C(=O)c1c(O)c3c(c(O)c1C2=O)C[C@@](O)(C(=O)CO)C[C@@H]3O[C@H]1C[C@H](N)[C@H](O)[C@H](C)O1` [doxorubicin], the GI50 was 63 nM.
